Measurements taken from PMC3586934 (Anesthesiology, 2012).
Like-named read-outs stand apart in the source and are kept apart here.

Experiments:
CYP3A = settings: human, in vivo; cited from earlier work
P-gp [1] = settings: cited from earlier work
[2] = cited from earlier work
healthy volunteers = settings: 6.0 mg intravenous plus 11.0 mg oral methadone HCl
CYP2B6 = settings: cited from earlier work
CYP3A4 = settings: cited from earlier work
[3] = both, human, in vivo, iv
Intravenous = settings: for Cmax / AUC(0-t) / AUC(0-inf): both, human, in vivo; for AUC(0-t): AUC0-96, oral methadone; for AUC(0-inf): AUC0-∞; for AUC(0-inf) / Foral: oral methadone
[4] = cited from earlier work; remark: listed apart in the source
P-gp [5] = settings: rats; cited from earlier work

Compound: Cc1c(O)cccc1C(=O)N[C@@H](CSc1ccccc1)[C@H](O)CN1C[C@H]2CCCC[C@H]2C[C@H]1C(=O)NC(C)(C)C [nelfinavir]
- inhibition of first-pass CYP3A (CYP3A): > 75%
- inhibition of hepatic CYP3A (CYP3A): 50%
- fexofenadine Cmax, change (P-gp [1]): decreased

Compound: CCC(=O)C(CC(C)N(C)C)(c1ccccc1)c1ccccc1 (stereo not shown) [methadone]
- FG predicted [2]: 0.97
- FG, average in several investigations [2]: 0.96
- EH, average ([2]; intravenous methadone): 0.09
- fhep ([2]; intravenous methadone): 0.76
- AUEC0-∞ (healthy volunteers; after indinavir): 96± 56 mm•hr
- Maximum miosis (healthy volunteers; after indinavir): 3.6 ± 1.0 mm
- AUEC0-∞ (healthy volunteers; control): 87 ± 66 mm•hr
- Maximum miosis (healthy volunteers; control): 3.6 ± 1.0 mm

Compound: CCC(=O)C(C[C@H](C)N(C)C)(c1ccccc1)c1ccccc1 [S-methadone]
- Km (CYP2B6): 16 µM
- Km (CYP3A4): 149 µM
- EH [3]: 0.06 ± 0.02
- Cmax (Intravenous; iv, 6 mg): 83 ± 39 ng/mL
- Cmax (Intravenous; po, 11 mg): 30 ± 10 ng/mL
- AUC(0-t) (Intravenous; po, 11 mg, control): 688 ± 169 ng·h/mL
- AUC(0-inf) (Intravenous; po, 11 mg, control): 780 ± 200 ng·h/mL
- AUC(0-t) (Intravenous; po, after indinavir): 685 ± 131 ng·h/mL
- AUC(0-inf) (Intravenous; po, after indinavir): 805 ± 194 ng·h/mL
- Foral (Intravenous; after indinavir): 0.90 ± 0.11
- Foral (Intravenous; control): 0.87 ± 0.10

Compound: CO[C@H]1/C=C/O[C@@]2(C)Oc3c(C)c(O)c4c(O)c(c(/C=N/N5CCN(C)CC5)c(O)c4c3C2=O)NC(=O)/C(C)=C\C=C\[C@H](C)[C@H](O)[C@@H](C)[C@@H](O)[C@@H](C)[C@H](OC(C)=O)[C@@H]1C [rifampin]
- methadone clearance, change [4]: doubled

Compound: C[C@@H](c1ncncc1F)[C@](O)(Cn1cncn1)c1ccc(F)cc1F [voriconazole]
- R-methadone AUC, increase [4]: 47%
- S-methadone AUC, increase [4]: 103%

Compound: O=C1Nc2ccc(Cl)cc2[C@@](C#CC2CC2)(C(F)(F)F)O1 [efavirenz]
- methadone clearance, change [4]: doubled

Compound: C/C=C/C[C@@H](C)C(=O)[C@H]1C(=O)N[C@@H](C(C)C)C(=O)N(C)CC(=O)N(C)[C@@H](CC(C)C)C(=O)N[C@@H](C(C)C)C(=O)N(C)[C@@H](CC(C)C)C(=O)N[C@@H](C)C(=O)N[C@H](C)C(=O)N(C)[C@@H](CC(C)C)C(=O)N(C)[C@@H](CC(C)C)C(=O)N(C)[C@@H](C(C)C)C(=O)N1C [valspodar]
- oral methadone bioavailability, change (P-gp [5]): increased

Compound: CC(C)c1nc(CN(C)C(=O)N[C@H](C(=O)N[C@@H](Cc2ccccc2)C[C@H](O)[C@H](Cc2ccccc2)NC(=O)OCc2cncs2)C(C)C)cs1 [ritonavir]
- methadone clearance, change [4]: doubled
